Counter-ions that a name gives are not always drawn.
Experiments:
[1] = system: MC38 colon carcinoma tumors; experiment: MC38 tumor growth after local ablative IR and/or RA; format: in vivo, mouse
immune cells in tumors = experiment: Flow cytometric analysis of immune cells in treated MC38 tumors and draining lymph nodes; format: in vivo, mouse; conditions: FTY720 administration, after IR+RA treatment
Source text: Single cell suspensions were obtained as previously described (40). Cells were blocked with anti-Fc receptor (2.4 G2, BioXCell, Lebanon, New Hampshire, United States of America) and stained for live/dead with Zombie UV, followed staining using antibodies against CD45, CD4, CD8, NK1.1, CD11b, CD11c, Ly6C, Ly6G, F4/80, CD44, CD62L.
The following antibodies were used for high-dimensional flow analysis: BV605-CX3CR, BV650-XCR1, PB-CD11 b, BV510-CD24, BV711-CD64, BV785-F4/80, AF532-CD45, PerCP-Cy5.5-1-A/I-E, PerCP-eFluor710-Flt3, PE-Cy7-CD11c, FITC-Ly6C, PE-iNOS, PE-Dazzle 594-CD103, APC-TNF, Alexa Fluor 700-CD206, and APC-Cy7-SIRPα. For IFN-γ and GrzB (515407) staining, cells were cultured with PMA/ionomycin and brefeldin A (423303, BioLegend, San Diego, California, United States of America) for 6 hours followed by intracellular staining using BD fix/perm intracellular staining kit (554714, BD Biosciences, Franklin Lakes, New Jersey, United States of America). For TNF-α staining, cells were stimulated by PMA/ionomycin and brefeldin A for 4 hours followed by intracellular staining. Foxp3 (17-5773-82, Thermo Fisher Scientific, Waltham, Massachusetts, United States of America) Ki67 (Clone 16-A8, BioLegend, San Diego, California, United States of America) and iNOS staining were performed following Foxp3 staining protocol (00-5523-00, Thermo Fisher Scientific, Waltham, Massachusetts, United States of America). Cells were analyzed on Fortessa flow cytometer (BD Biosciences, Franklin Lakes, New Jersey, United States of America) or on Aurora spectral cytometer (Cytek Biosciences, Fremont, California, United States of America. Data was analyzed with software sold under the tradename FLOWJO software (FlowJo LLC, Ashland, Oregon, United States of America).
Immune cells in tumors 4 days after the start of the treatment were examined. […] In CD11b+ subsets, Ly6C^+ cells, including CD11c^+Ly6C^+ cells, increased by 4-fold in tumors receiving the combination treatment. […] Next, the DC population was examined by analyzing high-dimensional flow cytometry data using traditional dendritic cell (DC) markers. Monocyte-derived dendritic cells (MoDCs) (Ly6C^+CD11 b^+CD11c^+ MHC-II^+CXCR3^+CD64^+SIRPα^+CD206^− cells), a low level of type two dendritic cells (DC2s) (Ly6C^−CD11b^+CD11c^+MHC-11^+CXCR3^+CD64^−SIRPα+CD206^−) and a very low level of type one dendritic cells (DC1s) (Ly6C^−CD11b^−CD11c^+MHC-11^+ CXCR1^+CD103^+CD64^−) were detected in IR and RA treated tumors.

[2] = system: bone marrow-derived DCs (BMDCs); experiment: iNOS induction in bone marrow-derived dendritic cells in vitro; format: cell-based, mouse; conditions: addition of IFN-γ to BMDCs cultured with RA
Method: Femurs and tibias from 8- to 10-week-old mice were harvested. BMDCs were derived as described (40). The cultured BMDC were collected on day 6 for further experiments. For Inf-MAC induction in vitro, bone marrow cells were cocultured with the presence of 200 μM RA. On day 6, indicated amount of IFN-γ was added directly to the culture. Cells were stained for iNOS and TNF-α after 24-36 hours and analyzed using flow cytometry.

## CC(=N)NCc1cccc(CN)c1.Cl.Cl [1400 W, N-[[-(aminomethyl)phenyl]methyl]-ethanimidamide dihydrochloride]
[1]; iNOS inhibitor 1400 W administered in vivo
  antitumor efficacy of combined IR and RA treatment: significantly diminished

## CCCCCCCCc1ccc(CCC(N)(CO)CO)cc1 [FTY720, fingolimod hydrochloride]
[1]; FTY720 20 μg per dose by gavage every day for 7 days
  efficacy of IR+RA treatment: diminished to the level of IR alone
[1]; FTY720 20 μg per dose by gavage every day for 7 days, IR alone
  response to IR: not affected
Immune cells in tumors
  iNOS production in Inf-MACs in tumors and in circulating blood: abolishes increased iNOS production

B1: IFN-γ: interferon-gamma added to BMDC culture (protein, UniProt P01580 23-155, looked up)
Interferon gamma: HGTVIESLESLNNYFNSSGIDVEEKSLFLDIWRNWQKDGDMKILQSQIISFYLRLFEVLKDNQAISNNISVIESHLITTFFSNSKAKKDAFMSIAKFEVNNPQVQRQAFNELIRVVHQLLPESSLRKRKRSRC
[2]
  iNOS production in BMDCs: synergistically increased iNOS production in a dose dependent manner

Source: patent US20240000741A1, “ALL-TRANS RETINOIC ACID ENHANCES RADIOTHERAPY AND OVERCOMES IMMUNE SUPPRESSION FOR CANCER THERAPY” (The University of Chicago, priority 2022, published 2024)
